{"source": "paper PMC11983664", "about": "“Preclinical Pharmacokinetic Assessment of a Promising Vasorelaxant, Analgesic, and Anti‐Inflammatory Prototype 5‐[1‐(4‐Fluorophenyl)‐1H‐pyrazol‐4‐yl]‐2H‐tetrazole (LQFM020) Through Selective Bioanalytical HPLC‐PDA‐Based Method” (Biomedical Chromatography, 2025)", "key": {"[1]": {"system": "3T3 cell", "design": "method as in de Oliveira et al. [2017]", "conditions": "3T3 cells; ref de Oliveira et al. [2017]; cited from earlier work"}, "[2]": {"assay": "Pharmacokinetic study after intravenous bolus administration in rats", "assay_type": "in vivo, male Wistar rats", "conditions": "i.v. 10 mg/kg, male adult rats; for AUC(0-t) / half-life: male, Wistar, rat, plasma, iv", "description": "(§1) Male Wistar rats (250–300 g) obtained from Central Vivarium of Federal University of Goiás (UFG) were housed under a 12‐h light/dark cycle (22°C–23°C), with free access to food and water. This in vivo pharmacokinetic study was conducted in accordance with Ethical Principles in Animal Research, adopted by International Guiding Principles for Biomedical Research Involving Animals and approved by the Institutional Ethics in Research Committee at the UFG (Protocol CEUA/UFG 085/17). All efforts were made to minimize animal suffering as preconized by regulatory institutions.\n(§2) LQFM020 was prepared in physiological solution containing DMSO 1% at dose of 10 mg/kg for intravenous administration (i.v., bolus), and then, blood samples (0.5 mL) were collected at 0, 0.5, 1, 2, 3, 4, 5, 6, and 24 h in heparinized microtubes. Oral administration (p.o.) was performed at LQFM020 dose of 9, 18, or 36 mg/kg prepared in physiological solution with DMSO 1%. Blood samples (0.5 mL) were collected at 0, 0.5, 1, 2, 3, 4, 5, 6, and 24 h in heparinized microtubes. Plasma samples were obtained by blood centrifugation (3000 g, 10 min) and were stored at −20°C.\n(§3) LQFM020 pharmacokinetic parameters were obtained by non‐compartmental model, including peak plasma concentration (Cmax) and time to reach it (Tmax), elimination half‐life (t1/2), elimination constant (Kel), total area under the curve of plasma concentration versus time (AUCT), apparent distribution volume (Vd), clearance (Cl), and mean residence time (MRT). These pharmacokinetic parameters were calculated by Phoenix Connect 1.3.1 software (Certara, Princeton, NJ, USA)."}, "[3]": {"assay": "Pharmacokinetic study after oral administration in rats", "assay_type": "in vivo, male Wistar rats", "description": "as §1, §2, §3\nLQFM020 absolute oral bioavailability F(%) was obtained applying AUCT and dose (D) from p.o. and i.v. administration, according to the equation: F%=AUCp.o./AUCi.v.×Di.v./Dp.o.×100"}, "[4]": {"assay": "Stability of LQFM020 in rat plasma (short-term, freeze-thaw, long-term)", "assay_type": "in vitro ADME", "conditions": "n = 3", "description": "Bioanalytical method validation was conducted in accordance with the guideline of Brazilian Health Surveillance Agency (ANVISA) RDC 27/2012, analyzing several parameters, such as matrix effect, recovery, selectivity, linearity, precision and accuracy, and stabilities (short‐term, long‐term, and freezing/thawing cycles) (ANVISA [2012]).\nIndeed, rat plasma concentrations (n = 3) of LQC and HQC presented a nonsignificant degradation below ±15% (RE), ranging from 89.2 ± 2.2% (short term) to 107.5 ± 1.8% (long term) at the end of storage condition times, as shown in Table 2."}, "[5]": {"molecular_target": "CYP3A4 (Homo sapiens, UniProt P08684)", "sequence (P08684 whole entry)": "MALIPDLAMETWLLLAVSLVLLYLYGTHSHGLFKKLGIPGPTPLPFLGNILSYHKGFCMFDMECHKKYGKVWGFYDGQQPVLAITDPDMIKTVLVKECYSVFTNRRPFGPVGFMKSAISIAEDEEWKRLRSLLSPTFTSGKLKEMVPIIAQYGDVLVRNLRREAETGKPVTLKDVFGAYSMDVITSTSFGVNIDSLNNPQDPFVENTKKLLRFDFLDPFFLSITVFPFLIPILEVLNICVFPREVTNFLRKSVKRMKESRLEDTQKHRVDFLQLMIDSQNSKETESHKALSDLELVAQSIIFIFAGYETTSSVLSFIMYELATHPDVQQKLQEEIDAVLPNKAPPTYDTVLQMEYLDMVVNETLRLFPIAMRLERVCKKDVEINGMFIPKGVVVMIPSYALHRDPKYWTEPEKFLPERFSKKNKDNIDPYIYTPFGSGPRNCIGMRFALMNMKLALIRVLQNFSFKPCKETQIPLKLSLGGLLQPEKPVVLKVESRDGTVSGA", "assay": "CYP3A enzyme inhibition in vitro analysis (midazolam biotransformation, HPLC-PDA)", "assay_type": "in vitro ADME", "conditions": "LQFM020 100 μg/mL, midazolam 10 μg/mL, 37°C, 2 h", "description": "LQFM020 was evaluated for its ability to inhibit CYP3A4—the main subfamily responsible for drug metabolism in humans. […] Cold methanol was added after stirring these mixtures at 37°C for 2 h to stop the reaction and then centrifuged at 13,000 g for 10 min. The supernatant was filtered in Millex 0.22 μm pore and injected into HPLC system for the quantitation of midazolam. All samples were prepared in quintuplicate and analyzed by a HPLC‐PDA‐based method rigorously validated in our laboratory routine for the midazolam metabolites' quantification 1‐hydroxydazolam (1‐HMDZ) and 4‐hydroxydazolam (4‐HMDZ) (Ramirez De Oliveira et al. [2015])."}, "[6]": {"conditions": "mouse, in vivo, po; cited from earlier work"}, "[7]": {"design": "method as in earlier work", "conditions": "oral; ref Davies et al. [2000]; Dhondt et al. [2017]; Gong et al. [2012]; cited from earlier work"}, "[8]": {"conditions": "individual animals 1-3, 10 mg/kg"}, "[9]": {"conditions": "10 mg/kg, individual animals 1-3"}, "[10]": {"conditions": "Wistar, rat, plasma, oral 9 mg/kg, male adult rats, mean ± SEM, n = 3"}, "[11]": {"conditions": "Wistar, rat, plasma, oral 18 mg/kg, male adult rats, mean ± SEM, n = 3"}, "[12]": {"conditions": "Wistar, rat, plasma, oral 36 mg/kg, male adult rats, mean ± SEM, n = 3"}}, "note": "Several values for one entry are separate records, joined by “and”; a condition that tells them apart may be missing. Equal values may be shown once. Entries after “also recorded” stand apart in the source; their conditions may differ. Read-outs that look alike come from different tables or passages of the source.", "data": [{"compound": "Fc1ccc(-n2cc(-c3nn[nH]n3)cn2)cc1", "note": "[LQFM020, 5‐[1‐(4‐fluorophenyl)‐1H‐pyrazol‐4‐yl]‐2H‐tetrazole]", "values": [{"measurement": "concentrations reducing 3T3 cell viability", "setting": "[1]", "value": "350 to 1400", "unit": "µM"}, {"measurement": "AUCT", "setting": "[2]; [8]", "value": "1064.89 µg·h/mL and 1314.07 µg·h/mL"}, {"measurement": "ClT/F", "setting": "[2]; [8]", "value": "12 mL/day/kg and 13 mL/day/kg and 10 mL/day/kg"}, {"measurement": "Vd/F", "setting": "[2]; [8]", "value": "0.032 L/kg and 0.041 L/kg and 0.036 L/kg"}, {"measurement": "t1/2", "setting": "[2]; [8]", "value": "3.06 h and 3.26 h"}, {"measurement": "ClT/F", "setting": "[2]; mean ± SEM, n = 3", "value": "12 ± 0", "unit": "mL/day/kg"}, {"measurement": "Vd/F", "setting": "[2]; mean ± SEM, n = 3", "value": "0.03 ± 0.00", "unit": "L/kg"}, {"measurement": "t1/2", "setting": "[2]; mean ± SEM, n = 3, 10 mg/kg", "value": "3.05 ± 0.12", "unit": "h"}, {"measurement": "AUC(0-t)", "setting": "[2]; [9]", "value": 1230, "unit": "µg·h/mL"}, {"measurement": "half-life", "setting": "[2]; [9]", "value": 2.83, "unit": "h"}, {"measurement": "AUC(0-t)", "setting": "[2]; 10 mg/kg, mean ± SEM, n = 3", "value": "1220 ± 77.9", "unit": "µg·h/mL"}, {"measurement": "half-life", "setting": "[2]; 10 mg/kg, mean ± SEM, n = 3", "value": "~3", "unit": "h"}, {"measurement": "AUC(0-t)", "setting": "[3]; [10]", "value": "69.8 ± 5.33", "unit": "µg·h/mL"}, {"measurement": "Cmax", "setting": "[3]; [10]", "value": "16600 ± 4410", "unit": "ng/mL"}, {"measurement": "Tmax", "setting": "[3]; [10]", "value": "1.66 ± 0.66", "unit": "h"}, {"measurement": "Vd/F", "setting": "[3]; [10]", "value": "0.86 ± 0.4", "unit": "L/kg"}, {"measurement": "half-life", "setting": "[3]; Wistar, rat, plasma, oral 9 mg/kg, male adult rats, mean ± SEM, n = 3, read-out: t1/2 (converted)", "value": "5.82 ± 2.35", "unit": "h"}, {"measurement": "AUC(0-t)", "setting": "[3]; [11]", "value": "110 ± 17.1", "unit": "µg·h/mL"}, {"measurement": "Cmax", "setting": "[3]; [11]", "value": "26600 ± 2030", "unit": "ng/mL"}, {"measurement": "Tmax", "setting": "[3]; [11]", "value": "0.83 ± 0.17", "unit": "h"}, {"measurement": "Vd/F", "setting": "[3]; [11]", "value": "1.44 ± 0.36", "unit": "L/kg"}, {"measurement": "half-life", "setting": "[3]; Wistar, rat, plasma, oral 18 mg/kg, male adult rats, mean ± SEM, n = 3, read-out: t1/2 (converted)", "value": "5.85 ± 0.96", "unit": "h"}, {"measurement": "AUC(0-t)", "setting": "[3]; [12]", "value": "287 ± 82.4", "unit": "µg·h/mL"}, {"measurement": "Cmax", "setting": "[3]; [12]", "value": "55200 ± 21100", "unit": "ng/mL"}, {"measurement": "Tmax", "setting": "[3]; [12]", "value": "1.67 ± 0.66", "unit": "h"}, {"measurement": "Vd/F", "setting": "[3]; [12]", "value": "1.16 ± 0.26", "unit": "L/kg"}, {"measurement": "half-life", "setting": "[3]; Wistar, rat, plasma, oral 36 mg/kg, male adult rats, mean ± SEM, n = 3, read-out: t1/2 (converted)", "value": "6.74 ± 2.47", "unit": "h"}, {"measurement": "bioavailability", "setting": "[3]; male, Wistar, plasma, oral, rat, from AUC and dose of p.o. and i.v. (10 mg/kg) administration, read-out: absolute oral bioavailability F(%)", "value": 46, "unit": "%"}, {"measurement": "half-life", "setting": "[3]; male, Wistar, rat, plasma, oral administration, rats, overall, read-out: elimination half-time (t1/2) (converted)", "value": "~6", "unit": "h"}, {"measurement": "ClT", "setting": "[3]; oral 9 mg/kg, male adult rats, mean ± SEM, n = 3", "value": "158 ± 14", "unit": "mL/day/kg"}, {"measurement": "ClT", "setting": "[3]; oral 18 mg/kg, male adult rats, mean ± SEM, n = 3", "value": "230 ± 29", "unit": "mL/day/kg"}, {"measurement": "ClT", "setting": "[3]; oral 36 mg/kg, male adult rats, mean ± SEM, n = 3", "value": "216 ± 86", "unit": "mL/day/kg"}, {"measurement": "Stability, Accuracy (RE) (Mean ± CV%)", "setting": "[4]; freeze–thaw (3 cycles), nominal 0.75 μg/mL", "value": "96.4 ± 2.6", "unit": "%"}, {"measurement": "Stability, Accuracy (RE) (Mean ± CV%)", "setting": "[4]; freeze–thaw (3 cycles), nominal 15 μg/mL", "value": "96.0 ± 5.3", "unit": "%"}, {"measurement": "Stability, Accuracy (RE) (Mean ± CV%)", "setting": "[4]; long duration (30 days, −20°C), nominal 0.75 μg/mL", "value": "102.1 ± 6.5", "unit": "%"}, {"measurement": "Stability, Accuracy (RE) (Mean ± CV%)", "setting": "[4]; long duration (30 days, −20°C), nominal 15 μg/mL", "value": "107.5 ± 1.8", "unit": "%"}, {"measurement": "Stability, Accuracy (RE) (Mean ± CV%)", "setting": "[4]; short duration (RT, 4 h), nominal 0.75 μg/mL", "value": "89.2 ± 2.2", "unit": "%"}, {"measurement": "Stability, Accuracy (RE) (Mean ± CV%)", "setting": "[4]; short duration (RT, 4 h), nominal 15 μg/mL", "value": "94.5 ± 5.2", "unit": "%"}, {"measurement": "inhibition of CYP3A4 (peak areas of midazolam metabolites 1-HMDZ and 4-HMDZ vs negative control)", "setting": "[5]", "value": "no significant effect; also recorded: absence of inhibition; also recorded: does not change the biotransformation"}, {"measurement": "orally well tolerated dose", "setting": "[6]", "value": "≤ 2000", "unit": "mg/kg"}]}, {"compound": "Cc1ccc(-c2cc(C(F)(F)F)nn2-c2ccc(S(N)(=O)=O)cc2)cc1", "note": "[celecoxib]", "values": [{"measurement": "Tmax", "setting": "[7]", "value": "2 to 4", "unit": "h"}]}]}
